Source: paper PMC5973995 (Clinical Pharmacokinetics, 2017)

Assays:
[1] = given along with vortioxetine (Fig. 4)
[2] = cited from earlier work
[3] = cocktail with vortioxetine (Fig. 4)

| SMILES | effect of vortioxetine on the pharmacokinetics of the co-administered drug [1] | further results |
| --- | --- | --- |
| CC(=O)Oc1ccccc1C(=O)O [aspirin] | No effect | – |
| Cn1c(=O)c2c(ncn2C)n(C)c1=O [caffeine] | No effect | – |
| COc1ccc2c(c1)[C@]13CCCC[C@@H]1[C@H](C2)N(C)CC3 [dextromethorphan] | – | AUC(0–inf), 90% CI lower limit (with vs without vortioxetine) [2, 3]: 58%; C max, 90% CI lower limit (with vs without vortioxetine) [2, 3]: 68% |
| CN1C(=O)CN=C(c2ccccc2)c2cc(Cl)ccc21 [diazepam] | No effect | – |
| CCO [ethanol] | No effect | – |
| C#C[C@]1(O)CC[C@H]2[C@@H]3CCc4cc(O)ccc4[C@H]3CC[C@@]21C [ethinyl estradiol] | No effect | – |
| C#C[C@]1(O)CC[C@H]2[C@@H]3CCC4=CC(=O)CC[C@@H]4[C@H]3CC[C@@]21CC [levonorgestrel] | No effect | – |
| O=C([O-])[O-].[Li+].[Li+] [lithium] | No effect | – |
| Cc1ncc2n1-c1ccc(Cl)cc1C(c1ccccc1F)=NC2 [midazolam] | No effect | – |
| COc1ccc2[nH]c([S+]([O-])Cc3ncc(C)c(OC)c3C)nc2c1 (stereo not shown) [omeprazole] | no apparent effect | C max, upper limit of the 90% CI (with vs without vortioxetine) ([2]; multiple doses of vortioxetine (Fig. 4)): 130%; 90% CI for AUC(0–inf) (with vs without vortioxetine) ([2]; multiple doses of vortioxetine, within limits): 80–125% |
